Consider 42 compounds from the NIST ThermoML archive (doi:10.1021/je9003178).

The structures appear in SMILES notation. Numbers after ± are expanded uncertainties.

This data set in a line: activity coefficient (dimensionless); of the first substance listed, at infinite dilution; xn = mol fraction of the nth substance listed. To be noted: Liquid, Chromatography, x1 = 0.

In the case of `c1ccccc1` [benzene] + CCn1cc[n+](C)c1.N#CN=C=[N-], the activity coefficient is, setting by setting: (322.65 K) 2.57 ± 0.12; (332.85 K) 2.56 ± 0.12; (343.15 K) 2.56 ± 0.12.

Regarding `CCCCCCCCCC` [decane] + CCCCCC[N+](C)(C)C.O=S(=O)([N-]S(=O)(=O)C(F)(F)F)C(F)(F)F, the activity coefficient (322.65 K) came to 36.8 ± 1.7, the activity coefficient (343.85 K) was 31 ± 1.4 and the activity coefficient (352.65 K) was determined as 29.6 ± 1.4.

As for `Cc1ccc(C)cc1` [1,4-dimethylbenzene] + CCn1cc[n+](C)c1.N#CN=C=[N-], the activity coefficient (322.65 K) worked out at 6.93 ± 0.32, the activity coefficient (332.85 K) came out at 7.05 ± 0.32 and the activity coefficient (343.15 K) was found to be 6.79 ± 0.31.

In the case of `CCC=O` [propanal] + CCCCCC[N+](C)(C)C.O=S(=O)([N-]S(=O)(=O)C(F)(F)F)C(F)(F)F, the activity coefficient was 0.508 ± 0.032 (322.65 K), 0.502 ± 0.032 (343.85 K) and 0.505 ± 0.032 (352.65 K).

In the case of `CCCCCCC` [heptane] + CCn1cc[n+](C)c1.N#CN=C=[N-], the activity coefficient is, setting by setting: (322.65 K) 183 ± 8.7; (332.85 K) 159 ± 7.5; (343.15 K) 139 ± 6.6.

For `Cc1ccc(C)cc1` [1,4-dimethylbenzene] + CCCCCC[N+](C)(C)C.O=S(=O)([N-]S(=O)(=O)C(F)(F)F)C(F)(F)F, the activity coefficient (322.65 K) is 1.82 ± 0.079, the activity coefficient (343.85 K) worked out at 1.82 ± 0.079 and the activity coefficient (352.65 K) stood at 1.86 ± 0.081.

In the case of `CCN(CC)CC` [triethylamine] + CCCCCC[N+](C)(C)C.O=S(=O)([N-]S(=O)(=O)C(F)(F)F)C(F)(F)F, the activity coefficient runs as follows: (322.65 K) 4.53 ± 0.21; (343.85 K) 4.83 ± 0.22; (352.65 K) 5.04 ± 0.23.

As for `Cc1ccccc1` [toluene] + CCCCCC[N+](C)(C)C.O=S(=O)([N-]S(=O)(=O)C(F)(F)F)C(F)(F)F, the activity coefficient is 1.31 ± 0.045 (322.65 K), 1.33 ± 0.046 (343.85 K) and 1.38 ± 0.05 (352.65 K).

Regarding `OCC(F)(F)F` [2,2,2-trifluoroethanol] + CCn1cc[n+](C)c1.N#CN=C=[N-], the activity coefficient by setting is: (322.65 K) 0.1 ± 0.04; (332.85 K) 0.11 ± 0.04; (343.15 K) 0.11 ± 0.04.

Regarding `CCCO` [propan-1-ol] + CCCCCC[N+](C)(C)C.O=S(=O)([N-]S(=O)(=O)C(F)(F)F)C(F)(F)F, the activity coefficient is 1.83 ± 0.079 (322.65 K), 1.51 ± 0.058 (343.85 K) and 1.41 ± 0.052 (352.65 K).

Consider `ClCCl` [dichloromethane] + CCn1cc[n+](C)c1.N#CN=C=[N-], for which the activity coefficient by setting is: (322.65 K) 0.67 ± 0.03; (332.85 K) 0.73 ± 0.03; (343.15 K) 0.78 ± 0.03.

As to `CO` [methanol] + CCCCCC[N+](C)(C)C.O=S(=O)([N-]S(=O)(=O)C(F)(F)F)C(F)(F)F, the activity coefficient turned out to be 1.16 ± 0.035 (322.65 K), 0.971 ± 0.025 (343.85 K) and 0.956 ± 0.026 (352.65 K).

Consider `CCCCCCCCCCC` [undecane] + CCn1cc[n+](C)c1.N#CN=C=[N-], for which the activity coefficient is, setting by setting: (322.65 K) 1030 ± 50; (332.85 K) 926 ± 44; (343.15 K) 834 ± 40.

As for `C[N+](=O)[O-]` [nitromethane] + CCn1cc[n+](C)c1.N#CN=C=[N-], the activity coefficient is, setting by setting: (322.65 K) 0.66 ± 0.03; (332.85 K) 0.64 ± 0.03; (343.15 K) 0.63 ± 0.03.

On to `ClC(Cl)Cl` [trichloromethane] + CCn1cc[n+](C)c1.N#CN=C=[N-], for which the activity coefficient runs as follows: (322.65 K) 0.76 ± 0.03; (332.85 K) 0.81 ± 0.03; (343.15 K) 0.86 ± 0.03.

Turning to `CCCCCCCC` [octane] + CCCCCC[N+](C)(C)C.O=S(=O)([N-]S(=O)(=O)C(F)(F)F)C(F)(F)F, the activity coefficient was 19 ± 0.88 (322.65 K), 16.8 ± 0.78 (343.85 K) and 16.2 ± 0.75 (352.65 K).

As for `CCC[N+](=O)[O-]` [1-nitropropane] + CCn1cc[n+](C)c1.N#CN=C=[N-], the activity coefficient was determined as 1.51 ± 0.06 (322.65 K), 1.5 ± 0.06 (332.85 K) and 1.49 ± 0.06 (343.15 K).

As to `CCCCCCC` [heptane] + CCCCCC[N+](C)(C)C.O=S(=O)([N-]S(=O)(=O)C(F)(F)F)C(F)(F)F, the activity coefficient turned out to be 13.5 ± 0.62 (322.65 K), 12.3 ± 0.57 (343.85 K) and 11.9 ± 0.55 (352.65 K).

As to `CC(C)O` [propan-2-ol] + CCCCCC[N+](C)(C)C.O=S(=O)([N-]S(=O)(=O)C(F)(F)F)C(F)(F)F, the activity coefficient is, setting by setting: (322.65 K) 1.69 ± 0.07; (343.85 K) 1.39 ± 0.051; (352.65 K) 1.33 ± 0.046.

Consider `C1CCCCC1` [cyclohexane] + CCn1cc[n+](C)c1.N#CN=C=[N-], for which the activity coefficient amounted to 46 ± 2.1 (322.65 K), 42.1 ± 2 (332.85 K) and 38.7 ± 1.8 (343.15 K).

For `CCCCCCCC` [octane] + CCn1cc[n+](C)c1.N#CN=C=[N-], the activity coefficient reads like this: (322.65 K) 290 ± 14; (332.85 K) 260 ± 12; (343.15 K) 234 ± 11.

With `ClC(Cl)(Cl)Cl` [tetrachloromethane] + CCCCCC[N+](C)(C)C.O=S(=O)([N-]S(=O)(=O)C(F)(F)F)C(F)(F)F, the activity coefficient by setting is: (322.65 K) 2.42 ± 0.11; (343.85 K) 2.39 ± 0.11; (352.65 K) 2.42 ± 0.11.

Consider `C=O` [methanal] + CCn1cc[n+](C)c1.N#CN=C=[N-], for which the activity coefficient was 0.32 ± 0.04 (322.65 K), 0.35 ± 0.04 (332.85 K) and 0.37 ± 0.03 (343.15 K).

As for `c1ccsc1` [thiophene] + CCCCCC[N+](C)(C)C.O=S(=O)([N-]S(=O)(=O)C(F)(F)F)C(F)(F)F, the activity coefficient turned out to be 0.921 ± 0.026 (322.65 K), 0.92 ± 0.026 (343.85 K) and 0.941 ± 0.026 (352.65 K).

Take `C=CCCCC` [hex-1-ene] + CCn1cc[n+](C)c1.N#CN=C=[N-]: the activity coefficient was determined as 43.6 ± 2 (322.65 K), 41.6 ± 1.9 (332.85 K) and 39.9 ± 1.9 (343.15 K).

With `CCCC(C)=O` [pentan-2-one] + CCn1cc[n+](C)c1.N#CN=C=[N-], the activity coefficient is, setting by setting: (322.65 K) 2.92 ± 0.13; (332.85 K) 2.93 ± 0.13; (343.15 K) 2.9 ± 0.13.

Turning to `CCCCO` [butan-1-ol] + CCCCCC[N+](C)(C)C.O=S(=O)([N-]S(=O)(=O)C(F)(F)F)C(F)(F)F, the activity coefficient (322.65 K) was 2.25 ± 0.1, the activity coefficient (343.85 K) was determined as 1.83 ± 0.079 and the activity coefficient (352.65 K) stood at 1.74 ± 0.073.

Regarding `CCO` [ethanol] + CCn1cc[n+](C)c1.N#CN=C=[N-], the activity coefficient by setting is: (322.65 K) 0.78 ± 0.03; (332.85 K) 0.74 ± 0.03; (343.15 K) 0.75 ± 0.03.

Consider `CC#N` [acetonitrile] + CCCCCC[N+](C)(C)C.O=S(=O)([N-]S(=O)(=O)C(F)(F)F)C(F)(F)F, for which the activity coefficient came to 0.486 ± 0.033 (322.65 K), 0.46 ± 0.033 (343.85 K) and 0.465 ± 0.033 (352.65 K).

Turning to `CCOCC` [diethyl ether] + CCCCCC[N+](C)(C)C.O=S(=O)([N-]S(=O)(=O)C(F)(F)F)C(F)(F)F, the activity coefficient reads like this: (322.65 K) 1.52 ± 0.059; (343.85 K) 1.91 ± 0.084; (352.65 K) 1.94 ± 0.086.

For `CCCCCCCCCCCC` [dodecane] + CCn1cc[n+](C)c1.N#CN=C=[N-], the activity coefficient stood at 1410 ± 68 (322.65 K), 1290 ± 62 (332.85 K) and 1180 ± 57 (343.15 K).

For `CCCCCC` [hexane] + CCCCCC[N+](C)(C)C.O=S(=O)([N-]S(=O)(=O)C(F)(F)F)C(F)(F)F, the activity coefficient was determined as 9.81 ± 0.45 (322.65 K), 9.02 ± 0.41 (343.85 K) and 8.85 ± 0.41 (352.65 K).

`CC1CCCCC1` [methylcyclohexane] + CCCCCC[N+](C)(C)C.O=S(=O)([N-]S(=O)(=O)C(F)(F)F)C(F)(F)F: the activity coefficient (322.65 K) came out at 8.67 ± 0.4, the activity coefficient (343.85 K) was found to be 7.78 ± 0.36 and the activity coefficient (352.65 K) stood at 7.54 ± 0.35.

Take `CCCC=O` [butanal] + CCCCCC[N+](C)(C)C.O=S(=O)([N-]S(=O)(=O)C(F)(F)F)C(F)(F)F: the activity coefficient (322.65 K) was 0.657 ± 0.03, the activity coefficient (343.85 K) was 0.661 ± 0.03 and the activity coefficient (352.65 K) came out at 0.677 ± 0.03.

For the compound `CC1CCCC1` [methylcyclopentane] + CCCCCC[N+](C)(C)C.O=S(=O)([N-]S(=O)(=O)C(F)(F)F)C(F)(F)F, the activity coefficient (322.65 K) was 6.61 ± 0.3, the activity coefficient (343.85 K) is 5.96 ± 0.27 and the activity coefficient (352.65 K) stood at 5.83 ± 0.27.

On to `CCC(=O)CC` [pentan-3-one] + CCCCCC[N+](C)(C)C.O=S(=O)([N-]S(=O)(=O)C(F)(F)F)C(F)(F)F, for which the activity coefficient came to 0.563 ± 0.032 (322.65 K), 0.601 ± 0.031 (343.85 K) and 0.637 ± 0.03 (352.65 K).

As to `C#CCCCCC` [1-heptyne] + CCCCCC[N+](C)(C)C.O=S(=O)([N-]S(=O)(=O)C(F)(F)F)C(F)(F)F, the activity coefficient is 3.57 ± 0.16 (322.65 K), 3.5 ± 0.16 (343.85 K) and 3.54 ± 0.16 (352.65 K).

Consider `CC(C)CO` [2-methyl-1-propanol] + CCCCCC[N+](C)(C)C.O=S(=O)([N-]S(=O)(=O)C(F)(F)F)C(F)(F)F, for which the activity coefficient is, setting by setting: (322.65 K) 2.1 ± 0.095; (343.85 K) 1.71 ± 0.071; (352.65 K) 1.63 ± 0.066.

Take `CCC(=O)CC` [pentan-3-one] + CCn1cc[n+](C)c1.N#CN=C=[N-]: the activity coefficient by setting is: (322.65 K) 2.81 ± 0.13; (332.85 K) 2.84 ± 0.13; (343.15 K) 2.84 ± 0.13.

In the case of `CCCCCCCCC` [nonane] + CCn1cc[n+](C)c1.N#CN=C=[N-], the activity coefficient is, setting by setting: (322.65 K) 498 ± 24; (332.85 K) 446 ± 21; (343.15 K) 401 ± 19.

Consider `CC(C)O` [propan-2-ol] + CCn1cc[n+](C)c1.N#CN=C=[N-], for which the activity coefficient reads like this: (322.65 K) 1.2 ± 0.04; (332.85 K) 1.14 ± 0.03; (343.15 K) 1.09 ± 0.03.

Turning to `CCc1ccccc1` [ethylbenzene] + CCCCCC[N+](C)(C)C.O=S(=O)([N-]S(=O)(=O)C(F)(F)F)C(F)(F)F, the activity coefficient (322.65 K) amounted to 1.83 ± 0.079, the activity coefficient (343.85 K) is 1.91 ± 0.084 and the activity coefficient (352.65 K) was found to be 1.97 ± 0.088.
